Patent US5374772A, “Substituted benzoic acids, inhibitors of phospholipases A2” (Hoffmann-LaRoche Inc., priority 1993, dated 1994)

What was measured:
[1] = target: T1, HSF-PLA2 (extracellular PLA2 obtained from human synovial fluid) (Homo sapiens, UniProt P14555); test: Assay for Inhibition of HSF-PLA2 In Vitro; format: biochemical; conditions: for IC50: given as 50 % inhibition at the given concentration, 14C-oleate-labelled E. coli substrate, pH 7.3, 37° C., 30 minutes, read-out: % Inhib of HSF-PLA2: 50 (concentration) = IC50 (μM concentration that produces 50% inhibition of PLA2 activity)
T1 construct: extracellular enzyme obtained from human synovial fluid; from tissue; host or cells: pooled human synovial fluid (0.1% v/v in the assay)
T1 sequence (P14555 21-144): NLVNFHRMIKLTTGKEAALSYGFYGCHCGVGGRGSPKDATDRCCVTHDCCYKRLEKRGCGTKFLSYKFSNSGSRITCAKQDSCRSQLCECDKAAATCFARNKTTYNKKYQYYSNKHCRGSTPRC
Description: The PLA2 used in this test is the extracellular enzyme obtained from human synovial fluid (HSF-PLA2). The assay for HSF-PLA2 activity was a modification of the described method [Franson R., Dobrow R., Weiss, J., Elsbach P., and […]. Lipid Res., 19, 18-23 (1978)] which was conducted using [1-^14 C]-oleate-labelled E. coli substrate in excess at a final concentration of 20,000 dpm/ml. This was equivalent to 18.2 mM of cell membrane phospholipid phosphorus and 2×10^9 autoclaved E. coli/ml. The optimal conditions which were developed for the assay of HSF-PLA2 inhibitors are summarized as follows. […] The reaction was terminated by the addition of 2.5 ml of chloroform-methanol (1 to 1.5, v/v). The extraction of lipids from the stopped reaction mixture was conducted by the further additions of 0.5 ml of chloroform and 1 ml of water with mixing. […] The extracted lipid residue was redissolved in […] of a solution containing carrier oleic acid (0.2 mg/ml) of […]]). […] This TLC system rapidly (6 minutes) resolved the enzymatically released product, ^14 C-oleic acid, from the unreacted ^14 C-phospholipid substrate. The unsaturated lipids were located on the chromatogram by a brief exposure to iodine vapor. The oleic acid zone (Rf value 0.95) and phospholipid zone (origin) were cut out, chopped into small pieces, shaken with 2 ml of ethanol-water (80 to 20, v/v) and 15 ml of Aquasol and counted for radioactivity. A control incubation of substrate in the absence of HSF-PLA2 was performed in each experiment. The PLA2 activity of the human synovial fluid was corrected for this small control value. […] The specific activity of PLA2 in the pooled human synovial fluid under the optimal assay conditions was 49.2 nmoles [1-^14 C]-oleic acid released hour^-1 mg^-1. The IC50 (μM concentration of test compound that produces 50% inhibition of PLA2 activity) was determined for each test compound.

[2] = test system: croton oil-induced mouse ear edema; test: Croton Oil Mouse Ear Edema Test; format: in vivo, male CD-1 mice; conditions: 1 mg topical, coapplied with croton oil, ear punch weight at 6 hours
Description: The croton oil-induced mouse ear edema test, a model of irritant-induced contact dermatitis, has been used for evaluation of the PLA2 inhibitors by the topical route of administration. This test was carried out as described in the following references:
The major active ingredient in croton oil is the tumor promoter 12-O-tetradecanoylphorbol-13-acetate (TPA) and the topical application of TPA to mouse skin has been reported to cause an increase in epidermal PGE2 production as well as an increase in epidermal cell membrane PLA2 activity. Indomethacin, an inhibitor of prostaglandin synthesis, prevented the TPA-mediated increase in epidermal PGE2 levels as well as the TPA-mediated induction of epidermal cell ornithine decarboxylase. Furthermore, the application of PGE2 to mouse skin countered the inhibitory effect of indomethacin upon TPA-stimulated cellular proliferation.
Twenty five μl of a 1% croton oil solution [dissolved in a mixture of pyridine/water/diethyl ether at a ratio of 5/20/75 (croton oil vehicle)] are applied to the outer side of the right ear of 3-4 week old male CD-1 mice (8 animals per group). The test compounds are dissolved directly in the 1% croton oil solution at various concentrations and coapplied. Control animals receive 25 μl of croton oil vehicle on the right ear. Biopsy punches are removed at 6 hours from the fight ear of the animals using a 6 mm skin trephine (Roboz, Washington, D.C.) and the wet weight of the ear punches is determined. The weight of the biopsy punches is a measure of ear inflammation, primarily edema. The data are expressed as percent inhibition relative to control groups.
Statistical analysis of the mean edema values of the control versus the treated groups is performed using Student's t-test. The significance of changes from the mean value for vehicle-treated (control) animals in the following Tables is indicated as follows: *p<0.05, **p<0.01, ***p<0.005,ns/not significant.

[3] = test system: TPA-induced mouse ear edema; test: TPA Induced Mouse Ear Edema Test (ear punch weight); format: in vivo, male CD-1 mice; conditions: Mus musculus; 0.3 mg topical, 30 minutes prior to TPA, ear punch weight at 6 hours; read-out: % Inhib of TPA Mouse Ear Edema (0.3 mg)
Description: The TPA-induced mouse ear edema test, a model of irritant-induced contact dermatitis is described in the following reference: J. M. Young, B. M. Wagner and […]. Invest. Dermatology 80, 48-52 (1983). For this test, 10 μl of 12-O-tetradecanoylphorbol-13-acetate (TPA), dissolved in a vehicle of pyridine: water: diethyl ether (20:5:75), was applied to the outside of the right ear of 3-4 week old male CD-1 mice (8 animals per group). The test compounds were dissolved in the same vehicle and 10 μl was applied to the inside of the same ear 30 minutes prior to the application of TPA. Ear punches (6 mm) were removed at 6 hours after TPA application, weighed and assayed for myeloperoxidase (MPO) activity as described in the following reference: P. P. Bradley, […]. Christensen and G. Rothstein, J. Invest. Dermatology 78, 206-209 (1982). The wet weight of the ear biopsy punches is a measure of the ear edema and the level of MPO activity in the ear punches is an indicator of neutrophil infiltration. The data are expressed as percent inhibition of drug-[…] relative to the control group.

[4] = test system: myeloperoxidase (MPO) activity, indicator of neutrophil infiltration; test: TPA mouse ear test, myeloperoxidase activity in ear punches; format: in vivo, male CD-1 mice; conditions: 0.3 mg topically
Description: For this test, 10 μl of 12-O-tetradecanoylphorbol-13-acetate (TPA), dissolved in a vehicle of pyridine: water: diethyl ether (20:5:75), was applied to the outside of the right ear of 3-4 week old male CD-1 mice (8 animals per group). The test compounds were dissolved in the same vehicle and 10 μl was applied to the inside of the same ear 30 minutes prior to the application of TPA. Ear punches (6 mm) were removed at 6 hours after TPA application, weighed and assayed for myeloperoxidase (MPO) activity as described in the following reference: P. P. Bradley, D. A. Priebat, R. D. Christensen and G. Rothstein, J. Invest. Dermatology 78, 206-209 (1982). The wet weight of the ear biopsy punches is a measure of the ear edema and the level of MPO activity in the ear punches is an indicator of neutrophil infiltration. The data are expressed as percent inhibition of drug-treatedanimals relative to the control group.

[5] = test system: myeloperoxidase in colonic mucosa; test: Acetic Acid-Induced Colitis in Rats; format: in vivo, Male rats (Sprague-Dawley); conditions: 10 mg/kg orally
From the text: The rat acetic acid-induced colitis bioassay has been described by J. E. Krawisz, et al. in Amer. J. Proc. Gastro. Col. Rec. Surg. 31:11-18 (1980), and by P. Sharon and W. F. Stenson in Gastroenterology 88, 55-63 (1985) and 86, 453-460 (1984). Acetic acid-induced colitis is characterized by the movement of inflammatory cells into the colon, ,with the number of such cells in the mucosa being measured by the activity of myeloperoxidase, a marker enzyme for these cells. Positive desirable activity is indicated by a reduction in the high levels of myeloperoxidase caused by acetic acid. Male rats (Sprague-Dawley), weighing 150 to 300 g, were pretreated twice daily for two days with either the vehicle (water or dimethylsulfoxide) or the test inhibitor compound suspended in water or dissolved in dimethylsulfoxide and orally administered. […] The colonic mucosa was surgically removed and homogenized in an aqueous buffer at pH 6 with a Tissumizer or similar device and myeloperoxidase was measured in the homogenate using o-phenylenediamine as a chromagen, as described by A. Voller, D. E. Bidwell and A. Bartlett in "The Enzyme Linked Immunosorbent Assay (ELISA)", Zoological Soc., London, 1979, pages 29-30. […]

[6] = test system: carrageenan-induced paw edema; test: Rat Carrageenan Paw Edema; format: in vivo, Lewis rats; conditions: 30 mg/kg ip, measured at 2 hours after carrageenan injection
Description: Representative compounds of the invention were tested in the rat carrageenan-induced paw edema test to determine their ability to inhibit this acute inflammatory response. Test compounds were administered intraperitoneally or orally to groups of seven Lewis rats (~200 gm) 1 hr prior to carrageenan administration. The test compounds were dissolved in dimethyl sulfoxide for intraperitoneal administration and dissolved or suspended in Labrafil […] for oral administration. At 0 hour, 0.1 mL of 1% carrageenan dissolved in pyrogen free saline was injected subplantarly into the right hind paw to elicit the inflammatory response. The volume (in mL) of the right hind paw was measured by immersion of the paw to the level of the lateral malleolus in an aqueous plethysmometer immediately prior to the injection of carrageenan and then at 1, 2 and 4 hr after carrageenan injection. The paw edema was calculated by subtracting the zero time reading from the readings taken after injection. The percent change of the edema volume from the vehicle treated control was calculated to determine the activity of the test compound. Statistical analysis of the mean paw edema values of the control versus the treated groups was performed using Student's t-test.

## CCCCCCCCCCCCCCCCCCOc1cc(OC(=O)C(c2ccccc2)c2ccccc2)cc(C(=O)O)c1 [Example 11, 3-(Octadecyloxy)-5-(2,2-diphenyl-1-oxoethoxy) benzoic acid]
[1]
  IC50: 0.3 µM
[2]
  % Inhib of Croton Oil Mouse Ear Edema (1 mg): 71%

## CCCCCCCCCCCCCCCCCCOc1cc(OC(=O)C23CC4CC(CC(C4)C2)C3)cc(C(=O)O)c1 [Example 13, 3-(Octadecyloxy)-5-[(tricyclo[3.3.1./3,7/]dec-1-ylcarbonyl)oxy]benzoic acid]
[1]; 5 μM, read-out: % Inhib of HSF-PLA2
  inhibition at 5 µM: 86%
[2]
  % Inhib of Croton Oil Mouse Ear Edema (1 mg): 81%

## CCCCCCCCCCCCCCCCCCOc1cc(OCCCOc2ccccc2)cc(C(=O)O)c1 [Example 17, 3-(Octadecyloxy)-5-(3-phenoxypropoxy)benzoic acid]
[1]
  IC50: 1.4 µM
[2]
  % Inhib of Croton Oil Mouse Ear Edema (1 mg): 81%

## CCCCCCCCCCCCCCCCCCOc1cc(OCCCCCCc2cccc(O)c2O)cc(C(=O)O)c1 [Example 19, 3-[[6-(2,3-Dihydroxyphenyl)hexyl]oxy]-5-(octadecyloxy) benzoic acid]
[1]
  IC50: 1.1 µM
[3]
  inhibition in vivo at 0.3 mg: 55%
[4]
  % Inhib of myeloperoxidase in the TPA mouse ear test: 94%
[2]
  % Inhib of Croton Oil Mouse Ear Edema (1 mg): 76%
[5]
  inhibition of myeloperoxidase (acetic acid-induced colitis): 56±17%

## CCCCCCCCCCCCCCCCCCOc1cc(OCCCOc2ccc(O)cc2)cc(C(=O)O)c1 [Example 31, 3-[3-(4-Hydroxyphenoxy)propoxy]-5-(octadecyloxy) benzoic acid]
[1]; 1 μM, read-out: % Inhib of HSF-PLA2
  inhibition at 1 µM: 37%
[3]
  inhibition in vivo at 0.3 mg: 58%
[4]
  % Inhib of myeloperoxidase in the TPA mouse ear test: 70%
[2]
  % Inhib of Croton Oil Mouse Ear Edema (1 mg): 84%
[6]
  inhibition of the edema (rat carrageenan paw edema): 55%

## CCCCCCCCCCOc1cc(OCCCOc2ccc(O)cc2)cc(C(=O)O)c1 [Example 40, 3-(Decyloxy)-5-[3-(4-hydroxyphenoxy)propoxy]benzoic acid]
[1]
  IC50: 8.8 µM
[3]
  inhibition in vivo at 0.3 mg: 58%
[4]
  % Inhib of myeloperoxidase in the TPA mouse ear test: 72%

## CCCCCCCCCCCCCCCCCCOc1cccc(C(=O)O)c1OCCCOc1ccc(O)cc1 [Example 58, 2-[3-(4-Hydroxyphenoxy)propoxy]-3-(octadecyloxy) benzoic acid]
[1]; read-out: % Inhib of HSF-PLA2
  inhibition at 10 µM: 93%
[3]
  inhibition in vivo at 0.3 mg: 48%
[4]
  % Inhib of myeloperoxidase in the TPA mouse ear test: 62%

## CCCCCCCCCCCCCCOc1cc(OCCCCCCc2cccc(O)c2O)cc(C(=O)O)c1 [Example 63, 3-[[6-(2,3-dihydroxyphenyl)hexyl]oxy]-5-(tetradecyloxy)benzoic acid]
[1]; read-out: % Inhib of HSF-PLA2
  inhibition at 10 µM: 88%
[3]
  inhibition in vivo at 0.3 mg: 61%
[4]
  % Inhib of myeloperoxidase in the TPA mouse ear test: 61%

## CCCCCCCCCCOc1cc(OCCCCCCc2cccc(O)c2O)cc(C(=O)O)c1 [Example 68, 3-(Decyloxy)-5-[[6-(2,3-dihydroxyphenyl)hexyl]oxy]benzoic acid]
[1]; 20 μM, read-out: % Inhib of HSF-PLA2
  inhibition at 20 µM: 74%
[3]
  inhibition in vivo at 0.3 mg: 58%
[4]
  % Inhib of myeloperoxidase in the TPA mouse ear test: 89%
